# Laboratory results as given in patent publication US11572354B2, “Inhibitor of indoleamine 2,3-dioxygenase-1 and methods of manufacture and use thereof” (UNIVERSITY HEALTH NETWORK, priority 2018, dated 2023).
# Like-named read-outs stand apart in the source and are kept apart here.
# What was measured:
# human IDO1 [1] = target: T1, human IDO1 (Homo sapiens (Human), UniProt P14902); experiment: IDO1 enzymatic inhibition assay; assay type: biochemical
# human IDO1 [2] = target: T1, human IDO1; experiment: IDO1 inhibition in HEK293/IDO1 transfected cells; assay type: cell-based; settings: HEK293/TRIPZ-IDO1 cells
# TDO2 = TDO2 (Homo sapiens, UniProt P48775); experiment: TDO2 enzymatic inhibition assay; assay type: biochemical; settings: 500 μM L-Tryptophan, means N≥3; read-out: TDO IC50
# [3] = Pharmacokinetics studies in mice (plasma and brain concentration); assay type: in vivo; settings: for Kp at 0.5 h / Kp at 2 h: brain/plasma
# Method: In order to assess the pharmacokinetics of the IDO1 inhibitors of the present application, two inhibitors were administered to mice at 20 mg/kg via PO (G29), or IP (G28). For a preliminary pharmacokinetic profile, three animals were sacrificed per time point at 30 minutes and two hours post-dose. For a full pharmacokinetic profile, three animals were sacrificed per time point at 15 minute, 30 minutes, 1, 2, 4, 6, 8, and 24 hours post-dose.
# Blood samples were collected via cardiac puncture, the mice were perfused with phosphate buffered saline (PBS) and the brains were collected. The blood and brain samples were protein precipitated with ice-cold acetonitrile and the concentration of the test compound in the resulting supernatant was quantified using LC/MS/MS. For the full pharmacokinetic profile, the parameters were computed using the “PK” package with the R statistical computing software using a non-compartmental analysis.
# [4] = Tissue protein binding (micro-equilibrium dialysis); assay type: in vitro ADME, mice; settings: 6 hours at 37° C.
# [5] = recombinant human IDO1, 200 μM L-Tryptophan, means N≥3
# [6] = 24 h after doxycycline induction, means N≥3
# T1 sequence (P14902 whole entry): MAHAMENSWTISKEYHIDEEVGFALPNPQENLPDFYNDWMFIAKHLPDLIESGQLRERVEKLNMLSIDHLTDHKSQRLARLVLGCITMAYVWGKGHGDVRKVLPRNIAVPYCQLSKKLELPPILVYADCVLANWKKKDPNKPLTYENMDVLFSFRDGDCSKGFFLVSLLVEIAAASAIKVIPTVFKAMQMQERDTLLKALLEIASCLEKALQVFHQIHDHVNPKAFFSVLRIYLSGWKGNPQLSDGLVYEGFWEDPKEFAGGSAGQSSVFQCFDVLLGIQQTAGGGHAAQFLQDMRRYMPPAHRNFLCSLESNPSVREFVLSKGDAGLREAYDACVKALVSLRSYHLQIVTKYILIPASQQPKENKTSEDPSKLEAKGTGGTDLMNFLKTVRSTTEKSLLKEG
# TDO2, sequence (P48775 whole entry, looked up): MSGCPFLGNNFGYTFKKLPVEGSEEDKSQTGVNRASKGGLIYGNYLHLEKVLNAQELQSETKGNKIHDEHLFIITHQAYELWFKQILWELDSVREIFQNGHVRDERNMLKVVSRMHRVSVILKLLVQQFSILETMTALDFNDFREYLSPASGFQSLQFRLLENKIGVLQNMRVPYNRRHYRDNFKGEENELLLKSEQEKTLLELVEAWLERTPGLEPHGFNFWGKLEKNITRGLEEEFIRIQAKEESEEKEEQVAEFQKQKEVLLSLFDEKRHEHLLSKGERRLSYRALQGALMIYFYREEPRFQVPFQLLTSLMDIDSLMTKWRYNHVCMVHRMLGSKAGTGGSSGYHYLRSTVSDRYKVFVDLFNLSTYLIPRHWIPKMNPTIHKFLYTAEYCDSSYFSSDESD
compound,measurement,setting,value
"Brc1ccc2[nH]c(-c3cnc[nH]3)cc2c1 [Compound 6, 5-bromo-2-(1H-imidazol-5-yl)-1H-indole]",IC50,human IDO1 [1]; [5],30000 nM
"Brc1ccc2[nH]c(-c3cncn3Cc3ccccc3)cc2c1 [Compound 9a, 2-(1-benzyl-1H-imidazol-5-yl)-5-bromo-1H-indole]",increase in potency versus compound 6,"human IDO1 [1]; IDO1 IC50, versus compound 6",two-fold
"COc1ccc(Cn2cncc2-c2cc3cc(Br)ccc3[nH]2)cc1 [Compound 9d, 5-bromo-2-(1-(4-methoxybenzyl)-1H-imidazol-5-yl)-1H-indole]",IC50,human IDO1 [1]; [5],21000 nM
same,EC50,human IDO1 [2]; [6],4300 nM
"Oc1ccccc1-c1cncn1Cc1cc2cc(Br)ccc2[nH]1 [Compound 10c, 2-(1-((5-bromo-1H-indol-2-yl)methyl)-1H-imidazol-5-yl)phenol]",IC50,TDO2,158000 nM
"Brc1ccc2[nH]c(Cn3cncc3-c3ccc[nH]3)cc2c1 [Compound G28, 2-((5-(1H-pyrrol-2-yl)-1H-imidazol-1-yl)methyl)-5-bromo-1H-indole]",IC50,human IDO1 [1]; recombinant human IDO1,310 nM
same,IC50,human IDO1 [1]; [5],309 nM
same,EC50,human IDO1 [2],470 nM
same,EC50,human IDO1 [2]; [6],467 nM
same,Tissue Concentration Plasma Mean,"[3]; 20 mg/kg IP, 0.25 hr",1880 ng/mL
same,Tissue Concentration Plasma Mean,"[3]; 20 mg/kg IP, 0.5 hr",1840 ng/mL
same,Tissue Concentration Plasma Mean,"[3]; 20 mg/kg IP, 1 hr",1410 ng/mL
same,Tissue Concentration Plasma Mean,"[3]; 20 mg/kg IP, 2 hr",562 ng/mL
same,Tissue Concentration Plasma Mean,"[3]; 20 mg/kg IP, 4 hr",133 ng/mL
same,Tissue Concentration Plasma Mean,"[3]; 20 mg/kg IP, 6 hr",BQL
same,Tissue Concentration Plasma Mean,"[3]; 20 mg/kg IP, 8 hr",BQL
same,AUC(0-inf),"[3]; mouse, 20 mg/kg IP, Brain",14200 ng·h/mL
same,AUC(0-t),"[3]; mouse, 20 mg/kg IP, Brain",9870 ng·h/mL
same,Cmax,"[3]; mouse, 20 mg/kg IP, Brain",4020 ng/mL
same,Tmax,"[3]; mouse, 20 mg/kg IP, Brain",30 min
same,half-life,"[3]; mouse, 20 mg/kg IP, Brain",142 min
same,AUC(0-inf),"[3]; mouse, 20 mg/kg IP, Plasma",2920 ng·h/mL
same,AUC(0-t),"[3]; mouse, 20 mg/kg IP, Plasma",2910 ng·h/mL
same,Cmax,"[3]; mouse, 20 mg/kg IP, Plasma",1880 ng/mL
same,Tmax,"[3]; mouse, 20 mg/kg IP, Plasma",15 min
same,half-life,"[3]; mouse, 20 mg/kg IP, Plasma",49.8 min
same,concentration at 0.25 h,"[3]; mouse, brain, ip, 20 mg/kg, 20 mg/kg IP, 0.25 hr, read-out: Tissue Concentration Brain Mean",1660 ng/g
same,concentration at 0.5 h,"[3]; mouse, brain, ip, 20 mg/kg, 20 mg/kg IP, 0.5 hr, read-out: Tissue Concentration Brain Mean",4020 ng/g
same,concentration at 1 h,"[3]; mouse, brain, ip, 20 mg/kg, 20 mg/kg IP, 1 hr, read-out: Tissue Concentration Brain Mean",3520 ng/g
same,concentration at 2 h,"[3]; mouse, brain, ip, 20 mg/kg, 20 mg/kg IP, 2 hr, read-out: Tissue Concentration Brain Mean",2760 ng/g
same,concentration at 4 h,"[3]; mouse, brain, ip, 20 mg/kg, 20 mg/kg IP, 4 hr, read-out: Tissue Concentration Brain Mean",1370 ng/g
same,concentration at 6 h,"[3]; mouse, brain, ip, 20 mg/kg, 20 mg/kg IP, 6 hr, read-out: Tissue Concentration Brain Mean",552 ng/g
same,concentration at 8 h,"[3]; mouse, brain, ip, 20 mg/kg, 20 mg/kg IP, 8 hr, read-out: Tissue Concentration Brain Mean",510 ng/g
same,fraction unbound at 6 h,"[4]; pooled brain homogenate in PBS (1:3 m:v), pooled mouse brain homogenized with PBS (1:3), read-out: % FU Brain",0.0161
same,fraction unbound at 6 h,"[4]; pooled mouse plasma, read-out: fu,plasma / % FU Plasma",0.0117
"Fc1ccc2[nH]c(Cn3cncc3-c3ccc[nH]3)cc2c1 [Compound G29, 2-((5-(1H-pyrrol-2-yl)-1H-imidazol-1-yl)methyl)-5-fluoro-1H-indole]",IC50,human IDO1 [1]; [5],230 nM
same,EC50,human IDO1 [2]; [6],250 nM
same,concentration at 0.5 h,"[3]; mouse, brain, po, 20 mg/kg, 20 mg/kg PO, 0.5 Hr, individual mouse M1, read-out: Brain concentration M1",2390 ng/mL
same,concentration at 0.5 h,"[3]; mouse, brain, po, 20 mg/kg, 20 mg/kg PO, 0.5 Hr, individual mouse M2, read-out: Brain concentration M2",869 ng/mL
same,concentration at 0.5 h,"[3]; mouse, brain, po, 20 mg/kg, 20 mg/kg PO, 0.5 Hr, individual mouse M3, read-out: Brain concentration M3",2560 ng/mL
same,concentration at 0.5 h,"[3]; mouse, brain, po, 20 mg/kg, 20 mg/kg PO, 0.5 Hr, read-out: Brain concentration Mean",1940 ng/mL
same,concentration at 2 h,"[3]; mouse, brain, po, 20 mg/kg, 20 mg/kg PO, 2 Hr, individual mouse M4, read-out: Brain concentration M4",3450 ng/mL
same,concentration at 2 h,"[3]; mouse, brain, po, 20 mg/kg, 20 mg/kg PO, 2 Hr, individual mouse M5, read-out: Brain concentration M5",2050 ng/mL
same,concentration at 2 h,"[3]; mouse, brain, po, 20 mg/kg, 20 mg/kg PO, 2 Hr, read-out: Brain concentration Mean",2750 ng/mL
same,Kp at 0.5 h,"[3]; mouse, po, 20 mg/kg, 20 mg/kg PO, 0.5 Hr, individual mouse M1, read-out: B/P Ratio M1",0.9
same,Kp at 0.5 h,"[3]; mouse, po, 20 mg/kg, 20 mg/kg PO, 0.5 Hr, individual mouse M2, read-out: B/P Ratio M2",0.5
same,Kp at 0.5 h,"[3]; mouse, po, 20 mg/kg, 20 mg/kg PO, 0.5 Hr, individual mouse M3, read-out: B/P Ratio M3",0.9
same,Kp at 0.5 h,"[3]; mouse, po, 20 mg/kg, 20 mg/kg PO, 0.5 Hr, read-out: B/P Ratio Mean",0.8
same,Kp at 2 h,"[3]; mouse, po, 20 mg/kg, 20 mg/kg PO, 2 Hr, individual mouse M4, read-out: B/P Ratio M4",5.5
same,Kp at 2 h,"[3]; mouse, po, 20 mg/kg, 20 mg/kg PO, 2 Hr, individual mouse M5, read-out: B/P Ratio M5",5
same,Kp at 2 h,"[3]; mouse, po, 20 mg/kg, 20 mg/kg PO, 2 Hr, read-out: B/P Ratio Mean",5.3
same,concentration at 0.5 h,"[3]; mouse, plasma, po, 20 mg/kg, 20 mg/kg PO, 0.5 Hr, individual mouse M1, read-out: Plasma concentration M1",2660 ng/mL
same,concentration at 0.5 h,"[3]; mouse, plasma, po, 20 mg/kg, 20 mg/kg PO, 0.5 Hr, individual mouse M2, read-out: Plasma concentration M2",1610 ng/mL
same,concentration at 0.5 h,"[3]; mouse, plasma, po, 20 mg/kg, 20 mg/kg PO, 0.5 Hr, individual mouse M3, read-out: Plasma concentration M3",2740 ng/mL
same,concentration at 0.5 h,"[3]; mouse, plasma, po, 20 mg/kg, 20 mg/kg PO, 0.5 Hr, read-out: Plasma concentration Mean",2330 ng/mL
same,concentration at 2 h,"[3]; mouse, plasma, po, 20 mg/kg, 20 mg/kg PO, 2 Hr, individual mouse M4, read-out: Plasma concentration M4",629 ng/mL
same,concentration at 2 h,"[3]; mouse, plasma, po, 20 mg/kg, 20 mg/kg PO, 2 Hr, individual mouse M5, read-out: Plasma concentration M5",408 ng/mL
same,concentration at 2 h,"[3]; mouse, plasma, po, 20 mg/kg, 20 mg/kg PO, 2 Hr, read-out: Plasma concentration Mean",519 ng/mL
